Test results published in the supplement of paper PMC11061612.

Experiments:
Experiment in all cases: combination Emax (second highest fraction inhibited in the dose matrix, 72 h); higher = more inhibition; extreme values may be limits of the assay
[1] = tested on: MFE-280 (Endometrial Carcinoma)
Method in brief: (§1)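 Bliss excess equals the observed combination effect minus the expected value EA + EB − EA·EB, where EA and EB are the effects of each agent alone. Combination Emax is the second-highest inhibition within the matrix. Inhibition was scaled from CellTiter-Glo 2.0 luminescence, with 0 set by vehicle wells and 1 by blank wells, after 72 hours of two-drug dosing of cells plated in 1536-well plates.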

[2] = tested on: NCI-H2342 (Lung Adenocarcinoma)
Method in brief: as §1

[3] = tested on: OPM-2 (Plasma Cell Myeloma)
Method in brief: as §1

[4] = tested on: COLO-680N (Esophageal Squamous Cell Carcinoma)
Method in brief: as §1

[5] = tested on: RCM-1 (Colorectal Carcinoma)
Method in brief: as §1

[6] = tested on: REH (B-Lymphoblastic Leukemia)
Method in brief: as §1

SK-MEL-2 (Melanoma) = tested on: SK-MEL-2 (Melanoma)
Method in brief: as §1

[7] = tested on: OVMIU (Ovarian Carcinoma)
Method in brief: as §1

Structure (SMILES) | combination Emax [1] | combination Emax [2] | combination Emax [3] | combination Emax [4] | combination Emax [5] | combination Emax [6] | combination Emax (SK-MEL-2 (Melanoma)) | combination Emax [7]
N#Cc1cnc(Nc2cc(NC[C@H]3CNCCO3)c(C(F)(F)F)cn2)cn1 [SRA737] + C=CCn1c(=O)c2cnc(Nc3ccc(N4CCN(C)CC4)cc3)nc2n1-c1cccc(C(C)(C)O)n1 [AZD1775] (first compound max 10 µM, partner max 1 µM) | 0.566 | 0.621 | 0.93 | 0.35 | 0.631 | 0.957 | 0.772 | 0.669
N#Cc1cnc(Nc2cc(NC[C@H]3CNCCO3)c(C(F)(F)F)cn2)cn1 [SRA737] + CCc1c2c(nc3ccc(O)cc13)-c1cc3c(c(=O)n1C2)COC(=O)[C@]3(O)CC [SN-38] (first compound max 10 µM, 7x7, partner max 0.3 µM) | 0.88 | 0.74 | 0.926 | 0.552 | 0.768 | 0.991 | 0.693 | 0.404
N#Cc1cnc(Nc2cc(NC[C@H]3CNCCO3)c(C(F)(F)F)cn2)cn1 [SRA737] + Nc1ccn([C@@H]2O[C@H](CO)[C@@H](O)C2(F)F)c(=O)n1 [Gemcitabine] (first compound max 10 µM, 7x7, partner max 0.3 µM) | 0.815 | 0.841 | 0.911 | 0.47 | 0.688 | 0.989 | 0.504 | 0.456
N#Cc1cnc(Nc2cc(NC[C@H]3CNCCO3)c(C(F)(F)F)cn2)cn1 [SRA737] + O=c1[nH]cc(F)c(=O)[nH]1 [5-Fluorouracil] (first compound max 10 µM, 7x7, partner max 20 µM) | 0.252 | 0.1 | 0.84 | 0.387 | 0.578 | 0.798 | 0.113 | 0.413
Cc1nc(-c2cn3c(n2)-c2ccc(-c4cnn(C(C)(C)C(N)=O)c4)cc2OCC3)n(C(C)C)n1 [Taselisib] + O=C(Nc1ccc2[nH]nc(-c3ccncc3)c2c1)[C@@H]1CCN(CC(=O)N2CCN(c3ccc(-c4ncccn4)cc3)CC2)C1 [SCH772984] (first compound max 10 µM, 7x7, partner max 5 µM) | 0.839 | 0.431 | 1 | 0.5 | 0.803 | 0.477 | 0.968 | 0.904
CC1(C)CCC(CN2CCN(c3ccc(C(=O)NS(=O)(=O)c4ccc(NCC5CCOCC5)c([N+](=O)[O-])c4)c(Oc4cnc5[nH]ccc5c4)c3)CC2)=C(c2ccc(Cl)cc2)C1 [Venetoclax] + CS(=O)(=O)CCNCc1ccc(-c2ccc3ncnc(Nc4ccc(OCc5cccc(F)c5)c(Cl)c4)c3c2)o1 [Lapatinib] (first compound max 1 µM, 7x7, partner max 10 µM) | 0.255 | 0.183 | 0.64 | 0.231 | 0.42 | 0.916 | 0.174 | 0.607
